Like-named read-outs stand apart in the source and are kept apart here.
Legend:
[1] = tested on: SF-268; assay: Cell proliferation assay, CNS Cancer SF-268; assay type: cell-based; details: Homo sapiens, read-out: GI50 or IC50, CNS Cancer SF-268
Protocol: (§1) The compounds listed in Table III were prepared using the procedures outlined in the above Examples.

[2] = tested on: SK-MEL-2; assay: Cell proliferation assay, Melanoma SK-MEL-2; assay type: cell-based; details: Homo sapiens, read-out: GI50 or IC50, Melanoma SK-MEL-2
Protocol: (§2) The compounds listed in Table IV were prepared using the procedures outlined in the above Examples.

[3] = tested on: UO-31; assay: Cell proliferation assay, Renal Cancer UO-31; assay type: cell-based; details: Homo sapiens, read-out: GI50 or IC50, Renal Cancer UO-31
Protocol: as §2

[4] = tested on: H69-AR (MDR); assay: Cell proliferation assay, SC Lung Cancer H69-AR (MDR); assay type: cell-based; details: Homo sapiens, H69AR; read-out: GI50 or IC50, SC Lung Cancer H69-AR (MDR)
Protocol: as §1

[5] = tested on: OVCAR-3; assay: Cell proliferation assay, Ovarian Cancer OVCAR-3; assay type: cell-based; details: Homo sapiens, read-out: GI50 or IC50, Ovarian Cancer OVCAR-3
Protocol: as §2

[6] = tested on: HCT-15; assay: Cell proliferation assay, Colon Cancer HCT-15; assay type: cell-based; details: Homo sapiens, read-out: GI50 or IC50, Colon Cancer HCT-15
Protocol: as §1

[7] = tested on: NCI-ADR; assay: Cell proliferation assay, Breast Cancer NCI-ADR; assay type: cell-based; details: Homo sapiens, NCI/ADR-RES; read-out: GI50 or IC50, Breast Cancer NCI-ADR
Protocol: as §2

[8] = tested on: PC-3; assay: Cell proliferation assay, Prostate Cancer PC-3; assay type: cell-based; details: Homo sapiens, read-out: GI50 or IC50, Prostate Cancer PC-3
Protocol: as §2

[9] = tested on: MES-SA/Dx5; assay: Cell proliferation assay, Uterine MES-SA/Dx5; assay type: cell-based; details: Homo sapiens, read-out: GI50 or IC50, Uterine MES-SA/Dx5
Protocol: as §2

[10] = tested on: MCF-7; assay: Cell proliferation assay (panel), Breast Cancer MCF-7; assay type: cell-based; details: Homo sapiens, MCF7; read-out: GI50 or IC50, Breast Cancer MCF-7
Protocol: as §2

[11] = tested on: HL-60; assay: Cell proliferation assay, Leukemia HL-60; assay type: cell-based; details: Homo sapiens, read-out: GI50 or IC50, Leukemia HL-60
Protocol: as §1

[12] = tested on: HL60-MX1 (MDR); assay: Cell proliferation assay, Leukemia HL60-MX1 (MDR); assay type: cell-based; details: read-out: GI50 or IC50, Leukemia HL60-MX1 (MDR)
Protocol: as §1

[13] = tested on: NCI-H460; assay: Cell proliferation assay, NSC Lung Cancer NCI-H460; assay type: cell-based; details: Homo sapiens, read-out: GI50 or IC50, NSC Lung Cancer NCI-H460
Protocol: as §1

[14] = tested on: MCF-7; assay: Cell proliferation assay, MCF-7; assay type: cell-based; details: Homo sapiens, MCF7; 48 hrs exposure, Alamar Blue, FIG. 6; no shift between MCF-7 and MCF-7/ADR; read-out: approximate IC50, cell proliferation
Protocol: (§3) The MCF-7 cell line, the MDR cell line, and the MCF-7/ADR cell line were used. Alamar Blue™ was used to quantitate cell viability.
The compounds listed in Table II were prepared using the procedures outlined in the above Examples.

[15] = mouse, in vivo, iv
Protocol: (§6) An acute toxicological study was performed for 320 prior to the xenograft study. Two groups (n=3) of female CD-1 mice were injected intraperitoneally (i.p.) with either 10 or 100 mg/Kg of 320 dissolved in 5% DMSO, 10% PEG400. […] A second MTD study was done by the intravascular (i.v.) route using 4 groups of CD-1 mice for the following: vehicle, 3, 10 and 30 mg/Kg injections which were to be given daily for days 1-5 and study duration of two weeks, at which point survivors would be euthanised.

[16] = biological target: T1, human Topo IIα (Homo sapiens, UniProt P11388); assay: Topo IIα decatenation inhibition assay (kDNA, agarose gel); assay type: biochemical; details: sample gel, FIG. 2; kDNA substrate
T1 construct: purchased Topogen Inc. Columbus, Ohio
T1 sequence (P11388 whole entry): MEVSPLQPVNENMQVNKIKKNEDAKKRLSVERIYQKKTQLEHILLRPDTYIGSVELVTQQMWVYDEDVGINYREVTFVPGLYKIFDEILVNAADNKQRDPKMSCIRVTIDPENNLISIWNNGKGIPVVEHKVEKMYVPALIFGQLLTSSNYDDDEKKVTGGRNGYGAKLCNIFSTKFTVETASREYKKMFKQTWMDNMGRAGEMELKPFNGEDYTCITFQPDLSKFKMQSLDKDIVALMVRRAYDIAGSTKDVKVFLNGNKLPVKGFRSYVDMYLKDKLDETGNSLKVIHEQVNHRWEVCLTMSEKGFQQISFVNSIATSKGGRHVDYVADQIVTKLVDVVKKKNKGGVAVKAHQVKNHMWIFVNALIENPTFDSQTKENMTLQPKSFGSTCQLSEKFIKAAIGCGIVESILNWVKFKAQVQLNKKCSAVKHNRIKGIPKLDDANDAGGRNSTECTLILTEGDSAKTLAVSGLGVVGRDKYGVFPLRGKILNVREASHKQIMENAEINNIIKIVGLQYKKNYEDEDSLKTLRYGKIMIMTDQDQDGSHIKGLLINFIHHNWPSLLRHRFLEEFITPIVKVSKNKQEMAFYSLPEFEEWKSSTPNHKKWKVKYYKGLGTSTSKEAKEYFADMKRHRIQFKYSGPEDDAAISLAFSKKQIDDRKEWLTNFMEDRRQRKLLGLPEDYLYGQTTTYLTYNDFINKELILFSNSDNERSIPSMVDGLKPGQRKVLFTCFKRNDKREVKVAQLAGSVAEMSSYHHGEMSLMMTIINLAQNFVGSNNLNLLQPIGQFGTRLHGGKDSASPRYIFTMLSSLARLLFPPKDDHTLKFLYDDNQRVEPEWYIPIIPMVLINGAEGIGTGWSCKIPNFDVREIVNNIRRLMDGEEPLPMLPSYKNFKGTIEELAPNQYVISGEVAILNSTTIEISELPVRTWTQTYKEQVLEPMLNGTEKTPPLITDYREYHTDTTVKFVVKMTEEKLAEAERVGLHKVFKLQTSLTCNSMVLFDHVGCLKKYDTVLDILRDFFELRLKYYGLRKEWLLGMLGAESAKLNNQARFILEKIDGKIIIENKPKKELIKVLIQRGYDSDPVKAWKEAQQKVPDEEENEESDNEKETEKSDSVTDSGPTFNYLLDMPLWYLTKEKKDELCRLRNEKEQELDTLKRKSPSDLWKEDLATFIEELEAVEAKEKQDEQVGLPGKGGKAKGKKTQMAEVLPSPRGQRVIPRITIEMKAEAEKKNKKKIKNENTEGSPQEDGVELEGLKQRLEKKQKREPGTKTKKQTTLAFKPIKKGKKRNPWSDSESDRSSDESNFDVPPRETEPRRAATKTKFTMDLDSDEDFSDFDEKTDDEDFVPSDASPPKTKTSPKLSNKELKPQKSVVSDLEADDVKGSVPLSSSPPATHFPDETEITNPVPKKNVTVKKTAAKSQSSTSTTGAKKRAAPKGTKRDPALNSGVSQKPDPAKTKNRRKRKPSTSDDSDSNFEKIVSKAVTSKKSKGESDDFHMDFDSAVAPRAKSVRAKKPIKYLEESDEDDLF
From the text: When present, high molecular weight kDNA has not migrated from the loading well.
The enzyme assays used for determining Topo IIα inhibition was either the ATP-dependent decatenation of high molecular weight kDNA (kinetoplast) as substrate or the relaxation of supercoiled pBR322 each incorporating human Topo IIα (Topogen Inc. Columbus, Ohio) and following literature protocols (Fortune, J. M. et al., J. Biol. Chem., 273(28), 17643-50 1998; Muller, M. T. et al., Biochemistry, 27(22), 8369-79, 1988). The 2.5 Kd mini-circle product derived from the catenated substrate is resolved on an agarose gel with ethidium bromide staining after electrophoresis. Likewise, the relaxed form of pBR322 is resolved from the faster moving supercoiled form during electrophoresis.

[17] = biological target: T2, Topo I (Homo sapiens, UniProt P11387); assay: Topo I covalent complex stabilization test; assay type: biochemical; details: similar tests as for Topo IIα
T2 sequence (P11387 1-765): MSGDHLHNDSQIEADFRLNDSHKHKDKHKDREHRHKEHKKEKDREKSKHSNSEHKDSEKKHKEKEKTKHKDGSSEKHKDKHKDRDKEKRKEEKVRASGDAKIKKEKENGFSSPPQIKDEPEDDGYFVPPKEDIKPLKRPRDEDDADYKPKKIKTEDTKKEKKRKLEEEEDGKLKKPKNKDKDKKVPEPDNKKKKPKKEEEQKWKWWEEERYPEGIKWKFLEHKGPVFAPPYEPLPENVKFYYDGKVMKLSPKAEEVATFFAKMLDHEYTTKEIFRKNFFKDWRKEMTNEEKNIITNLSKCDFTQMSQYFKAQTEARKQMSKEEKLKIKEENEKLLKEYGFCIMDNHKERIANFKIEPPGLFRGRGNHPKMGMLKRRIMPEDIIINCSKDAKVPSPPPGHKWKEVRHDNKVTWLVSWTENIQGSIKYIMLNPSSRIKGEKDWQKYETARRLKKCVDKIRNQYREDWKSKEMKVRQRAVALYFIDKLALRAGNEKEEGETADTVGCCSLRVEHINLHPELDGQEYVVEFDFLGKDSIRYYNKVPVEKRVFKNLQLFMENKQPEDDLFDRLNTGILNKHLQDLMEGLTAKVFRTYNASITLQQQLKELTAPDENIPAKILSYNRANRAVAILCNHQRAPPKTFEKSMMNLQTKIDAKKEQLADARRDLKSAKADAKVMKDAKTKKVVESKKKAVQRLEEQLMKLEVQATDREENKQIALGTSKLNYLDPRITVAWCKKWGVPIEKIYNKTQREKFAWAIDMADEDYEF
From the text: (§4) To determine if the compound 320 stabilizes the TopoIIα-DNA covalent complex, cleavage intermediates are trapped by the addition of SDS to the reaction (Wilson Byl, J. A., et al., Biochemistry, 40, 712-718, 2001). After proteinase K digestion to digest any covalently bound Topo, the products are electrophoresed and stained with EtBr. The appearance of an additional band that is a linear form of the 2.5 Kb minicircle product is indicative of a compound's ability to stabilize the covalent complex.

[18] = tested on: MCF-7/ADR; assay: Cell proliferation assay, MDR line MCF-7/ADR; assay type: cell-based, human; details: 48 hrs exposure; less potent in MCF-7/ADR
From the text: as §3

[19] = biological target: TopoIIα-DNA covalent complex (Homo sapiens, UniProt P11388); assay: Topo IIα DNA covalent complex stabilization assay; assay type: biochemical; details: SDS trapping, proteinase K, FIG. 5
TopoIIα-DNA covalent complex, sequence (P11388 whole entry, one chain of several): as the sequence (P11388 whole entry) above
From the text: as §4

[20] = tested on: NCI-H460; assay: NCI-H460 human xenograft study in nude mice; details: i.v., 320 25 mg/Kg days 1-5, etoposide 35 mg/Kg days 7, 10, 14; for anti-tumor activity with respect to final tumor volume: doxorubicin 5 mg/Kg days 7 and 14, day 28
Protocol: as §6
All injections were by the i.v. route; groups were 5 NCR nu/nu mice. The cell line NCI-H460 was used to produce the tumors that appeared by day 7. […] All survivors to day 28 were euthanised at this time and tumor volumes measured.

[21] = Acute toxicological study, i.p.; assay type: in vivo; details: female CD-1 mice, n=3, seven days
Protocol: as §6

[22] = tested on: calf thymus DNA; assay: DNA-intercalator displacement assay (EtBr displacement); assay type: binding; details: FIG. 4
From the text: The curve labeled “Hoechst” corresponds to Hoechst 33258. Controls are: 1) no EtBr (min. fluorescence) and 2) no compound (max. fluorescence).
(§5) Gel retardation assays were done on 320 and other biaryl/terphenyl acid compounds, to test for electrophoretic mobility shifts due to the presence of a substance that directly binds DNA.

[23] = tested on: pBR322 plasmid; assay: Gel retardation assay (electrophoretic mobility shift); assay type: binding
From the text: as §5

| SMILES | IC50 [1] | IC50 [2] | IC50 [3] | IC50 [4] | IC50 [5] | IC50 [6] | IC50 [7] | IC50 [8] | IC50 [9] | IC50 [10] | IC50 [11] | IC50 [12] | IC50 [13] | anti-tumor activity with respect to final tumor volume [20] | further results |
| --- | --- | --- | --- | --- | --- | --- | --- | --- | --- | --- | --- | --- | --- | --- | --- |
| O=C(Nc1ccncn1)c1ccc(Cl)c(-c2ccc(-c3ccccc3)cc2)c1 [Compound 37, 6-Chloro-[1,1′;4′,1″]terphenyl-3-carboxylic acid pyrimidin-4-ylamide] | 1000 to 25000 nM | > 25000 nM | 1000 to 25000 nM | ≤ 1000 nM | > 25000 nM | 1000 to 25000 nM | ≤ 1000 nM | 1000 to 25000 nM | ≤ 1000 nM | 1000 to 25000 nM | 1000 to 25000 nM | ≤ 1000 nM | 1000 to 25000 nM |  |  |
| O=C(NC1CCNCC1)c1ccc(Cl)c(-c2ccc(-c3ccccc3)cc2)c1 [Compound 43, 6-Chloro-[1,1′;4′,1″]terphenyl-3-carboxylic acid piperidin-4-ylamide] | 1000 to 25000 nM | 1000 to 25000 nM | 1000 to 25000 nM | ≤ 1000 nM | 1000 to 25000 nM | 1000 to 25000 nM | ≤ 1000 nM | 1000 to 25000 nM | ≤ 1000 nM | 1000 to 25000 nM | 1000 to 25000 nM | ≤ 1000 nM | 1000 to 25000 nM |  |  |
| CN(C)CCN(C(=O)c1ccc(Cl)c(-c2ccc(-c3ccccc3)cc2)c1)c1cccnc1 [Compound 52, 6-Chloro-[1,1′;4′,1″]terphenyl-3-carboxylic acid (2-dimethylamino-ethyl)-pyridin-3-yl-amide] | 1000 to 25000 nM | 1000 to 25000 nM | 1000 to 25000 nM | 1000 to 25000 nM | 1000 to 25000 nM | 1000 to 25000 nM | 1000 to 25000 nM | 1000 to 25000 nM | ≤ 1000 nM | 1000 to 25000 nM | 1000 to 25000 nM | 1000 to 25000 nM | 1000 to 25000 nM |  |  |
| O=C(NCC1CCCO1)c1ccc(Cl)c(-c2ccc(-c3ccccc3)cc2)c1 (stereo not shown) [Compound 58, 6-Chloro-[1,1′;4′,1″]terphenyl-3-carboxylic acid (tetrahydro-furan-2-ylmethyl)-amide] | 1000 to 25000 nM | 1000 to 25000 nM | 1000 to 25000 nM | ≤ 1000 nM | 1000 to 25000 nM | 1000 to 25000 nM | ≤ 1000 nM | 1000 to 25000 nM | ≤ 1000 nM | 1000 to 25000 nM | 1000 to 25000 nM | 1000 to 25000 nM | 1000 to 25000 nM |  |  |
| O=C(NC1(C(=O)O)Cc2ccccc2C1)c1ccc(Cl)c(-c2ccc(-c3ccccc3)cc2)c1 [Compound 320, 2-[(6″-Chloro-[1,1′;4′,1″]terphenyl-3″-carbonyl)-amino]-indan-2-carboxylic acid] |  |  |  |  |  |  |  |  |  |  |  |  |  | some final growth inhibition | IC50 [14]: ~30000 nM; survival, MTD study [15]: All other animals survived to the end of the study; survival, MTD study ([15]; 30 mg/kg): Two animals in the highest dose group survived with one animal dying after 3 injections; inhibition of Topo IIα decatenation [16]: complete inhibition; stabilization of the covalent complex in Topo I reactions [17]: no apparent stabilization of the covalent complex; shift in potency, resistant line MCF-7/ADR versus parent line MCF-7 [18]: no shift in potency; stabilization of the TopoIIα-DNA covalent complex (linear form of minicircle) [19]: does not stabilize the covalent complex; initial tumor growth delay [20]: no initial growth delay; survival and side effects, acute toxicity ([21]; 10 mg/Kg (low dose)): all the low dose mice survived with no visible side effects; survival, acute toxicity ([21]; 100 mg/Kg (high dose)): Two mice in the high dose group survived |
| O=C(O)C1c2ccccc2CCN1C(=O)c1ccc(Cl)c(-c2ccc(-c3ccccc3)cc2)c1 (stereo not shown) [Compound 337, 2-(6″-Chloro-[1,1′;4′,1″]terphenyl-3″-carbonyl)-1,2,3,4-tetrahydro-isoquinoline-1-carboxylic acid] |  |  |  |  |  |  |  |  |  |  |  |  |  |  | displacement of EtBr (intercalator) from DNA [22]: lack of intercalator displacement |
| CN1CCN(c2ccc3[nH]c(-c4ccc5[nH]c(-c6ccc(O)cc6)nc5c4)nc3c2)CC1 [Hoechst 33258] |  |  |  |  |  |  |  |  |  |  |  |  |  |  | IC50 of EtBr displacement [22]: low μM; displacement of EtBr (intercalator) from DNA [22]: clearly demonstrates displacement of EtBr |
| COc1cccc2c1C(=O)c1c(O)c3c(c(O)c1C2=O)C[C@@](O)(C(=O)CO)C[C@@H]3O[C@H]1C[C@H](N)[C@H](O)[C@H](C)O1 [doxorubicin, reference compound] |  |  |  |  |  |  |  |  |  |  |  |  |  | least efficacy | inhibition of Topo IIα decatenation [16]: partial inhibition; shift in potency, resistant line MCF-7/ADR versus parent line MCF-7 [18]: 100 fold; mobility shift of pBR322 plasmid on gels [23]: Mobility shifts were seen |
| COc1cc([C@@H]2c3cc4c(cc3[C@@H](O[C@@H]3O[C@@H]5CO[C@@H](C)O[C@H]5[C@H](O)[C@H]3O)[C@H]3COC(=O)[C@H]23)OCO4)cc(OC)c1O [etoposide] |  |  |  |  |  |  |  |  |  |  |  |  |  | greatest anti-tumor activity | stabilization of the TopoIIα-DNA covalent complex (linear form of minicircle) [19]: the linear form is present; initial tumor growth delay [20]: greatest initial growth delay |
